Reference: ChEMBL document CHEMBL1212822, “Synthesis, fluorine-18 radiolabeling, and biological evaluation of N-((E)-4-fluorobut-2-en-1-yl)-2beta-carbomethoxy-3beta-(4'-halophenyl)nortropanes: candidate radioligands for in vivo imaging of the brain dopamine transporter with positron emission tomography” (J Med Chem, 2010)

Legend:
[1] = molecular target: Sodium-dependent dopamine transporter (Homo sapiens, UniProt Q01959)
[2] = molecular target: Sodium-dependent serotonin transporter (Homo sapiens, UniProt P31645)
Chain of Sodium-dependent serotonin transporter (P31645 whole entry): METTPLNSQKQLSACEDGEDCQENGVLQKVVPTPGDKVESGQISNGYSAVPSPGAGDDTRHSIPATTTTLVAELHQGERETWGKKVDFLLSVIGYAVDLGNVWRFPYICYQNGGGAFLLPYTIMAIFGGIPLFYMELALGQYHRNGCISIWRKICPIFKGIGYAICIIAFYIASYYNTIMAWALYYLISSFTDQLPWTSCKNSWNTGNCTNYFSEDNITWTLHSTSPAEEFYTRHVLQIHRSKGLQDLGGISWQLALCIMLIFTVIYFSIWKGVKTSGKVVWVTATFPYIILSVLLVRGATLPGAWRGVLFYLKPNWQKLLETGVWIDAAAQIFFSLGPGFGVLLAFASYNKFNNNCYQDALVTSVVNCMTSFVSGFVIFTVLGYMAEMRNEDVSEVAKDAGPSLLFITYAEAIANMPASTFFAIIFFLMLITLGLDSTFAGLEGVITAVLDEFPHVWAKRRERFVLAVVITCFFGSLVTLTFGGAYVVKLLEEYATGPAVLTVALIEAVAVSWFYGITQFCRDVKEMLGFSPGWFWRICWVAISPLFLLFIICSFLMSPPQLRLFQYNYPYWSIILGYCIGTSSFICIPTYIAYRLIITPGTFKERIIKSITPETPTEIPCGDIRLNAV

[3] = molecular target: Sodium-dependent noradrenaline transporter (Homo sapiens, UniProt P23975)
Chain of Sodium-dependent noradrenaline transporter (P23975 whole entry): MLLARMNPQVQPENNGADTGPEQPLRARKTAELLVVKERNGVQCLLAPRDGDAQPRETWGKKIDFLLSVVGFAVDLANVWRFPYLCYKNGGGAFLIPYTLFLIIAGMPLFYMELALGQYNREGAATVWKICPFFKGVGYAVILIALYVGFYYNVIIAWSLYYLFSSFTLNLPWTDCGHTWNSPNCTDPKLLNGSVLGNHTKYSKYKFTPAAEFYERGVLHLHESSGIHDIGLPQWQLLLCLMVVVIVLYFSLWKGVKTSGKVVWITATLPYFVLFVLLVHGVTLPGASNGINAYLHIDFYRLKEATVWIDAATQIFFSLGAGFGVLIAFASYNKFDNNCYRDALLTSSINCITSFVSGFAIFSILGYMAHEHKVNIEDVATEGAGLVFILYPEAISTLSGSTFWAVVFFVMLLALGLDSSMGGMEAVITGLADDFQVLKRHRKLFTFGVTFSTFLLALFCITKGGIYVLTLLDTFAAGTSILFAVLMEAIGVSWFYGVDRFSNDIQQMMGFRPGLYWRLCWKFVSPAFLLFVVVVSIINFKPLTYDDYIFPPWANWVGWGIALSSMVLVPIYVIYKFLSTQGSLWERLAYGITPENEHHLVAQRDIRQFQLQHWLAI
Description: Displacement of [3H]nisoxetine from human NET

Chain of Sodium-dependent dopamine transporter (Q01959 whole entry): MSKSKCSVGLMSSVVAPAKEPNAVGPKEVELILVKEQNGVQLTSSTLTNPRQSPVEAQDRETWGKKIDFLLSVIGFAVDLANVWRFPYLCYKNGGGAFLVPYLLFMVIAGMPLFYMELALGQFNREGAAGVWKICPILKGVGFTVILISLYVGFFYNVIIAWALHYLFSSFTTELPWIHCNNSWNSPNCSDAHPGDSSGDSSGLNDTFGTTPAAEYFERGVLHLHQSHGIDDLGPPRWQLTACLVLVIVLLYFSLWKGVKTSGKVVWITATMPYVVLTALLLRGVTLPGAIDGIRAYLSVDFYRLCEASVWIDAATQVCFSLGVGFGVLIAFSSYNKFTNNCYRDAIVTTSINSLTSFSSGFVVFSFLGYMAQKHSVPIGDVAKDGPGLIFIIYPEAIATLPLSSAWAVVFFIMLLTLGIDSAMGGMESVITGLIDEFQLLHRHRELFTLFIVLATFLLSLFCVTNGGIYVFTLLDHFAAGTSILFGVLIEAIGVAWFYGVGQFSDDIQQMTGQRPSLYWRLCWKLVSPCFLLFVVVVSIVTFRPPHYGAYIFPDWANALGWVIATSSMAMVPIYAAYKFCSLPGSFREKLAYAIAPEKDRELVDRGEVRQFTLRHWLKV

SMILES | Ki [1] | Ki [2] | Ki [3]
COC(=O)[C@@H]1C2CCC(C[C@@H]1c1ccc(F)cc1)N2C/C=C/CF (stereo partly drawn) | 9.5 nM |  | 
COC(=O)[C@@H]1C2CCC(C[C@@H]1c1ccc(Br)cc1)N2C/C=C/CF (stereo partly drawn) |  | 8.5 nM | 87 nM
COC(=O)[C@@H]1C2CCC(C[C@@H]1c1ccc(I)cc1)N2C/C=C/CF (stereo partly drawn) | 0.5 nM | 2.2 nM | 
COC(=O)[C@@H]1C2CCC(C[C@@H]1c1ccc(C)cc1)N2C/C=C/CF (stereo partly drawn) | 2.7 nM | 147 nM | 265 nM
